Assay results as given in ChEMBL document CHEMBL3991601, “The target landscape of clinical kinase drugs” (Science, 2017).
Activity calls are given as the source filed them. Rule as the data show it, for most assays here: actives have a measured Kd and inactives only a lower limit.

What follows are molecules tested against T1, Serine/threonine-protein kinase Nek9 (Homo sapiens, UniProt Q8TD19).
T1 sequence (Q8TD19 whole entry): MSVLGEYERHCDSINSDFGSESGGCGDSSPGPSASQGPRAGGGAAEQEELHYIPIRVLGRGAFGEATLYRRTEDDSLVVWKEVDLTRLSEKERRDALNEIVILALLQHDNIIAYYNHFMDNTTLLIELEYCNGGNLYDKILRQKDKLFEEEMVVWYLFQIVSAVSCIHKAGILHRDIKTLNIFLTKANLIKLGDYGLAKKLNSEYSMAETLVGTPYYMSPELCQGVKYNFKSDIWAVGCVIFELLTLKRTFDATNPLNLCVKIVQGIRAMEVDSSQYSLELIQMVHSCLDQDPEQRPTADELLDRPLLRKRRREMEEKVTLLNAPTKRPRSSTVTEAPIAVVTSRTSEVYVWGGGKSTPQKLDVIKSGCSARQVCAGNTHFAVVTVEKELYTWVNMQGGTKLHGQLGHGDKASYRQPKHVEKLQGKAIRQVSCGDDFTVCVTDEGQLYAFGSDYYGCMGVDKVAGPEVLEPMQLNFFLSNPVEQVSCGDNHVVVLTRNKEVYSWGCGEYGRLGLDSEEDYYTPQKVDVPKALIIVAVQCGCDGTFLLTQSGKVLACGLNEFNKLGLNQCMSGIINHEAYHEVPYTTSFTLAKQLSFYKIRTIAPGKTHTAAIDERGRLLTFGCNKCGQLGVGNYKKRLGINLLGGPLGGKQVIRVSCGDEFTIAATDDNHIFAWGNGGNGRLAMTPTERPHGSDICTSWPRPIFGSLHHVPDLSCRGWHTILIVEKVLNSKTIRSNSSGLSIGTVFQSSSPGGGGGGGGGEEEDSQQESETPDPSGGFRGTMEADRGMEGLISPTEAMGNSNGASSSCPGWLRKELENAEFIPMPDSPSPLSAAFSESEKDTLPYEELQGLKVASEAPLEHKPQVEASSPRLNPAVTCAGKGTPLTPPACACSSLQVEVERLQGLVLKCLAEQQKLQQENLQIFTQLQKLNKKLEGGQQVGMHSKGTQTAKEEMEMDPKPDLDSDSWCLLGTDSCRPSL
Also: in the data inactive means no Kd found up to 30 µM.

| SMILES | Kd |
| --- | --- |
| CC[C@@H]1C(=O)N(C)c2cnc(Nc3ccc(C(=O)N[C@H]4CC[C@H](N5CCN(CC6CC6)CC5)CC4)cc3OC)nc2N1C(C)C [VOLASERTIB] | > 30 µM (inactive) |
| CCn1c(=O)c(-c2cc[nH]n2)cc2c(C)nc(N)nc21 [VOXTALISIB] | > 30 µM (inactive) |
| O=C(Nc1ccc(-c2ccnc(Nc3ccc(N4CCOCC4)cc3)n2)cc1)C1CCCN1 (stereo not drawn) [XL-019] | 2.19 µM (active) |

What follows are molecules tested against T2, Receptor-type tyrosine-protein kinase FLT3 (Homo sapiens, UniProt P36888).
T2 sequence (P36888 whole entry): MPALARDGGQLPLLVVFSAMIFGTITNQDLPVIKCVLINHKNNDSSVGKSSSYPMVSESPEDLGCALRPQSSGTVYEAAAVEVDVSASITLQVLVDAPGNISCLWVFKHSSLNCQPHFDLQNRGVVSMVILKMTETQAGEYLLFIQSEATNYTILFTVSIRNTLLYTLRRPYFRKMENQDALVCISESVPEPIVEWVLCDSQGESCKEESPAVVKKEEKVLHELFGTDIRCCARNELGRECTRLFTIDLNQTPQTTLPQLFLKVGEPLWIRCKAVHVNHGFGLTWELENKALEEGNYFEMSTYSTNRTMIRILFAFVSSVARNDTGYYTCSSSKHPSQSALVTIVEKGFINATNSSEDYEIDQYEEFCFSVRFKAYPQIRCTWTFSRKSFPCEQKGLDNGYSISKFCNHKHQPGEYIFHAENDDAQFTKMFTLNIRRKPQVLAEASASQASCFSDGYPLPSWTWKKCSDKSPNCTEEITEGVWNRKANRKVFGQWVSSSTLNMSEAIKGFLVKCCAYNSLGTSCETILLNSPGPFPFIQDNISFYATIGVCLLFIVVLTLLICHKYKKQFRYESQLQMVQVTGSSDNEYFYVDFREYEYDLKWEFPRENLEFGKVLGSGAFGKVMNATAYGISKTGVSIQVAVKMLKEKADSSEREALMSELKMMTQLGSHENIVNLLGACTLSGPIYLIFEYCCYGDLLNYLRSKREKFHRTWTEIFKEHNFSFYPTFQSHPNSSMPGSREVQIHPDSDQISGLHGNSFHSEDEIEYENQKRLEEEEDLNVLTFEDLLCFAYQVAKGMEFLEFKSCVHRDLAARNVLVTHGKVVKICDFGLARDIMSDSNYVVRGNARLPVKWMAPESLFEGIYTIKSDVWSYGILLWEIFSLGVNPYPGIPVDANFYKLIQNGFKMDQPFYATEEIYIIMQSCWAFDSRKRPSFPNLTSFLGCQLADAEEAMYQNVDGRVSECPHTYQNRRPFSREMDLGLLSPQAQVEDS

| SMILES | Kd |
| --- | --- |
| CC[C@@H]1C(=O)N(C)c2cnc(Nc3ccc(C(=O)N[C@H]4CC[C@H](N5CCN(CC6CC6)CC5)CC4)cc3OC)nc2N1C(C)C [VOLASERTIB] | > 30 µM (inactive) |
| CCn1c(=O)c(-c2cc[nH]n2)cc2c(C)nc(N)nc21 [VOXTALISIB] | > 30 µM (inactive) |
| O=C(Nc1ccc(-c2ccnc(Nc3ccc(N4CCOCC4)cc3)n2)cc1)C1CCCN1 (stereo not drawn) [XL-019] | 12.5 µM (active) |

These molecules were tested against Maternal embryonic leucine zipper kinase (Homo sapiens, UniProt Q14680).
Chain of Maternal embryonic leucine zipper kinase (Q14680 whole entry): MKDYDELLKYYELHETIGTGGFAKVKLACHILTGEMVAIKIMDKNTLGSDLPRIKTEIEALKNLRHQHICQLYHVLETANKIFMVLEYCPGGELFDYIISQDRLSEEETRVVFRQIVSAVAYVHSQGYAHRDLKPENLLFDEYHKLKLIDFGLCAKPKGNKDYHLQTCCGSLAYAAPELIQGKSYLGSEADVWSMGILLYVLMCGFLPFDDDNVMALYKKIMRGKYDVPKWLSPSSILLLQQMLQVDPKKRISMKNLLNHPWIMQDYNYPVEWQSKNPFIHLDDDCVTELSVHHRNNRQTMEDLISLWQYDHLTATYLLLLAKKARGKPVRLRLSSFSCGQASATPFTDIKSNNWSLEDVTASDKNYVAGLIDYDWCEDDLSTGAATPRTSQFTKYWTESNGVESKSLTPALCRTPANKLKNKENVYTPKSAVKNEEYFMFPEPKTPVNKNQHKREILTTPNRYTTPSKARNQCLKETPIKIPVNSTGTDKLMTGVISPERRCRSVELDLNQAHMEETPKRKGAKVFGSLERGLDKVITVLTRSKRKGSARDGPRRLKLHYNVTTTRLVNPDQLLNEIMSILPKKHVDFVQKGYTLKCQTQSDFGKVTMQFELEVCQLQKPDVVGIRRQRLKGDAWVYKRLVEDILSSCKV

| SMILES | Kd |
| --- | --- |
| CC[C@@H]1C(=O)N(C)c2cnc(Nc3ccc(C(=O)N[C@H]4CC[C@H](N5CCN(CC6CC6)CC5)CC4)cc3OC)nc2N1C(C)C [VOLASERTIB] | > 30 µM (inactive) |
| CCn1c(=O)c(-c2cc[nH]n2)cc2c(C)nc(N)nc21 [VOXTALISIB] | > 30 µM (inactive) |
| O=C(Nc1ccc(-c2ccnc(Nc3ccc(N4CCOCC4)cc3)n2)cc1)C1CCCN1 (stereo not drawn) [XL-019] | > 30 µM (inactive) |

The molecules below were run against Mitogen-activated protein kinase kinase kinase kinase 1 (Homo sapiens, UniProt Q92918).
Chain of Mitogen-activated protein kinase kinase kinase kinase 1 (Q92918 whole entry): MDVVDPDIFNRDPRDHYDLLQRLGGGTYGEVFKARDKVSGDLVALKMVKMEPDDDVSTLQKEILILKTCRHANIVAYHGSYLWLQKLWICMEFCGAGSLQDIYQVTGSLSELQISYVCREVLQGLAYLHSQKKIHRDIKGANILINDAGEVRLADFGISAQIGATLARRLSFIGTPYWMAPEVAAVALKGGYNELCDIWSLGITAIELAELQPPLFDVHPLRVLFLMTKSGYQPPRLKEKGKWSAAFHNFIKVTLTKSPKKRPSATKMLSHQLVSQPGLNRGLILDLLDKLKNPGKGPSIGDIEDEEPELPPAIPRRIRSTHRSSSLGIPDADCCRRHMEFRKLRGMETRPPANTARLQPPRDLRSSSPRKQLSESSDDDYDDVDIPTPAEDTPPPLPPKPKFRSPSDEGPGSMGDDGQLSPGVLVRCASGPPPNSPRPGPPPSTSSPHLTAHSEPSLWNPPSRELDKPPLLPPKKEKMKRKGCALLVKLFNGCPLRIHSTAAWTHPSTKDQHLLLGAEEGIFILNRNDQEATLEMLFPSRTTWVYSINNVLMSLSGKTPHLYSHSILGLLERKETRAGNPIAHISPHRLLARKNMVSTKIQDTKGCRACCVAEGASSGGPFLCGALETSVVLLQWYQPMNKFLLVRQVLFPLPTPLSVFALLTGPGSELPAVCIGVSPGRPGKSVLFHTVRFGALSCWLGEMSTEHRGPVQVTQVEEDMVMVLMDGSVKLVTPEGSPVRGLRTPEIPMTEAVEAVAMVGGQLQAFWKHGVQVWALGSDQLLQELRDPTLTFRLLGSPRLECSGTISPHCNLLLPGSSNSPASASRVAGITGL

| SMILES | Kd |
| --- | --- |
| CC[C@@H]1C(=O)N(C)c2cnc(Nc3ccc(C(=O)N[C@H]4CC[C@H](N5CCN(CC6CC6)CC5)CC4)cc3OC)nc2N1C(C)C [VOLASERTIB] | > 30 µM (inactive) |
| CCn1c(=O)c(-c2cc[nH]n2)cc2c(C)nc(N)nc21 [VOXTALISIB] | > 30 µM (inactive) |
| O=C(Nc1ccc(-c2ccnc(Nc3ccc(N4CCOCC4)cc3)n2)cc1)C1CCCN1 (stereo not drawn) [XL-019] | > 30 µM (inactive) |

What follows are molecules tested against Structural maintenance of chromosomes protein 2 (Homo sapiens, UniProt O95347).
Chain of Structural maintenance of chromosomes protein 2 (O95347 whole entry): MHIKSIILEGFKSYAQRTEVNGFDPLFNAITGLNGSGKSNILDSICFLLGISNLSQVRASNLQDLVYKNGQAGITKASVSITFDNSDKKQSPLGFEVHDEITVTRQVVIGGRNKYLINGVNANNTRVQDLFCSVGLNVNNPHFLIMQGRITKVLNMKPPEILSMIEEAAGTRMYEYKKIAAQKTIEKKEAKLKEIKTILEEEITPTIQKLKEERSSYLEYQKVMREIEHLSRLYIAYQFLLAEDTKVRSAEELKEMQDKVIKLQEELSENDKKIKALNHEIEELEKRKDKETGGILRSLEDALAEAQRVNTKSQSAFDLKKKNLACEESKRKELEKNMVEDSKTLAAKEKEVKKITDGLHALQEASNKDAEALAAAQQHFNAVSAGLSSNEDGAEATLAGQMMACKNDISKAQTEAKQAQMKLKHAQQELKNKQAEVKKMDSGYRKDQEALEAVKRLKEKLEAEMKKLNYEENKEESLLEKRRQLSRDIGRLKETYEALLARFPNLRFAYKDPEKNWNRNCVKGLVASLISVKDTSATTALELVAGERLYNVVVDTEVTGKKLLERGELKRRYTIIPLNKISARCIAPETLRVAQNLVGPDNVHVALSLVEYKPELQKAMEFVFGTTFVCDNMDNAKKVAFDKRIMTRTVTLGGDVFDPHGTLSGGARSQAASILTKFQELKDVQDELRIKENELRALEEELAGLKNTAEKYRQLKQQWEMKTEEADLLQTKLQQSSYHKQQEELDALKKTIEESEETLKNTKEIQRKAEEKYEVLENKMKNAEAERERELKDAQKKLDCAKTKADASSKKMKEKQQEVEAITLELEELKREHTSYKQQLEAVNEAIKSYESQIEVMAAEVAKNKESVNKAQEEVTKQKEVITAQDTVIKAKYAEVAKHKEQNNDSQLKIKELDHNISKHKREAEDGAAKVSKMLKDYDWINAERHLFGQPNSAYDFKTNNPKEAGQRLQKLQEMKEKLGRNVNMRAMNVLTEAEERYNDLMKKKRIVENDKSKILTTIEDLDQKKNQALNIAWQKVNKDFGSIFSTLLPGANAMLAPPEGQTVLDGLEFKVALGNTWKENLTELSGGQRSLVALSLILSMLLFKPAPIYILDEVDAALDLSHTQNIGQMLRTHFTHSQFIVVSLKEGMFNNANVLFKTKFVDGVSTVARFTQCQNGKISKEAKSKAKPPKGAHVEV

| SMILES | Kd |
| --- | --- |
| CC[C@@H]1C(=O)N(C)c2cnc(Nc3ccc(C(=O)N[C@H]4CC[C@H](N5CCN(CC6CC6)CC5)CC4)cc3OC)nc2N1C(C)C [VOLASERTIB] | > 30 µM (inactive) |
| CCn1c(=O)c(-c2cc[nH]n2)cc2c(C)nc(N)nc21 [VOXTALISIB] | > 30 µM (inactive) |
| O=C(Nc1ccc(-c2ccnc(Nc3ccc(N4CCOCC4)cc3)n2)cc1)C1CCCN1 (stereo not drawn) [XL-019] | > 30 µM (inactive) |

What follows are molecules tested against T3, Mitogen-activated protein kinase kinase kinase kinase 3 (Homo sapiens, UniProt Q8IVH8).
T3 sequence (Q8IVH8 whole entry): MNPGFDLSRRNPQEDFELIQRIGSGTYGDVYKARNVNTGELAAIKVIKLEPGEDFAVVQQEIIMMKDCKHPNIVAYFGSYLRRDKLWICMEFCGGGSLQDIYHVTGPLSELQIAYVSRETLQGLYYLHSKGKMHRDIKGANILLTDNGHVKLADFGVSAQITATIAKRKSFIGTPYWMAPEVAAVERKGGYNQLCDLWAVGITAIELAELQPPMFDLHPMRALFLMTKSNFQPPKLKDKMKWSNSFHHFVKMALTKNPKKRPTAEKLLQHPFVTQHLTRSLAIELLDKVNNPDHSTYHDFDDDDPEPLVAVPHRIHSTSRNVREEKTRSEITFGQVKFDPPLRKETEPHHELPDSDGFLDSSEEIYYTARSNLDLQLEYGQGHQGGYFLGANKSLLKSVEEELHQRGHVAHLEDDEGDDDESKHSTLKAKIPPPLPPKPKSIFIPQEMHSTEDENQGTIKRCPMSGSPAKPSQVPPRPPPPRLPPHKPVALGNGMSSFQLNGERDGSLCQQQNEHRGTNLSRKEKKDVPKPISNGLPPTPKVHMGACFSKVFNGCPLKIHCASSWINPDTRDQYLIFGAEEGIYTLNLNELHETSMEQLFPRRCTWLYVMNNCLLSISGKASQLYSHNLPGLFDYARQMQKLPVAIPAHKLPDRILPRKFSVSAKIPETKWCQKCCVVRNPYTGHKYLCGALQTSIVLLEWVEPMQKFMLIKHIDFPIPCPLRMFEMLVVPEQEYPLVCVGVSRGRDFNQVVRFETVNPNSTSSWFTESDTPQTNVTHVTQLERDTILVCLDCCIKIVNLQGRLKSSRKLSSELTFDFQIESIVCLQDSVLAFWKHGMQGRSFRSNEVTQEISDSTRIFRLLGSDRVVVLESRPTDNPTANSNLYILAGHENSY

| SMILES | Kd |
| --- | --- |
| CC[C@@H]1C(=O)N(C)c2cnc(Nc3ccc(C(=O)N[C@H]4CC[C@H](N5CCN(CC6CC6)CC5)CC4)cc3OC)nc2N1C(C)C [VOLASERTIB] | > 30 µM (inactive) |
| CCn1c(=O)c(-c2cc[nH]n2)cc2c(C)nc(N)nc21 [VOXTALISIB] | > 30 µM (inactive) |
| O=C(Nc1ccc(-c2ccnc(Nc3ccc(N4CCOCC4)cc3)n2)cc1)C1CCCN1 (stereo not drawn) [XL-019] | > 30 µM (inactive) |
